Reference: patent US9617267B2, “Compounds and methods for kinase modulation, and indications therefor” (Plexxikon Inc., priority 2009, dated 2017)
Where two headings read alike, the source gives them in different places. Each block holds one compound with its values, some of them ahead of it.

Experiments:
[1] = molecular target: CYP1A2 (Homo sapiens (Human), UniProt P05177); assay: CYP enzyme inhibition, fluorescent substrate (CEC)
Summary of the method: (§1)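 Ten-point 1:1 compound dilutions in NADPH-regenerating cofactor mix, pre-incubated 10 min at 37 °C before enzyme/substrate addition: CYP1A2 0.5 pmol with 5 μM CEC, 15 min, 409 ex/460 em; CYP2D6 1.5 pmol with 1.5 μM AMMC, 30 min, 409 ex/530 em. IC50 from fluorescent product vs concentration.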

[2] = test system: B-Raf; assay: B-Raf kinase activity biochemical assay (AlphaScreen, biotin-MEK1 phosphorylation); conditions: for Biochemical activity ratio B/V600E: ratio of IC50 B-Raf / B-Raf V600E; for Biochemical activity ratio B/C: ratio of IC50 B-Raf / c-Raf-1
Summary of the method: (§2)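 Biotin-MEK1 phosphorylation measured after 45 min kinase reaction at RT with 100 μM ATP final; compounds tested at 8 points from 0.1 mM DMSO stock.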

[3] = molecular target: B-Raf (Homo sapiens (Human), UniProt P15056); assay: as above; conditions: B-Raf
Summary of the method: as §2

[4] = molecular target: CYP2D6 (Homo sapiens (Human), UniProt P10635); assay: CYP enzyme inhibition, fluorescent substrate (AMMC); type: in vitro ADME; conditions: read-out: Cyp IC50 2D6
Summary of the method: as §1

[5] = molecular target: c-Raf-1 (Homo sapiens, UniProt P04049); assay: c-Raf-1 kinase activity biochemical assay (AlphaScreen, biotin-MEK1 phosphorylation)
Summary of the method: as §2

[6] = molecular target: B-Raf V600E (Homo sapiens (Human), UniProt P15056, V600E); assay: B-Raf V600E kinase activity biochemical assay (AlphaScreen, biotin-MEK1 phosphorylation); conditions: for IC50: B-Raf V600E; for Biochemical activity ratio V600E/C: ratio of IC50 B-Raf V600E / c-Raf-1
Summary of the method: as §2

[7] = molecular target: CYP2C19 (Homo sapiens (Human), UniProt P33261); assay: CYP enzyme inhibition, fluorescent substrate (CEC); conditions: read-out: Cyp IC50 2C19; CYP2C19, substrate CEC
Summary of the method: (§3)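 Human CYP activity was followed by the fluorescence of the metabolized product of a known substrate, which falls as metabolism is inhibited. Compounds from 100 mM DMSO stocks were serially diluted 1:1 over 10 points in co-factor mix and preincubated 10 min at 37 °C. IC50 was fitted from signal versus concentration.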

[8] = Relative solubility by turbidity threshold concentration in aqueous buffers (pH 1.5, 4.5, 6.8, 7.4); type: physicochemical; conditions: for turbidity threshold (L, M, H) 1.4: pH 1.4 [sic] (method: SGF pH 1.5); for turbidity threshold (L, M, H) 4.5: pH 4.5 (SIF); for turbidity threshold (L, M, H) 6.8: pH 6.8 (SIF); for turbidity threshold (L, M, H) 7.4: pH 7.4 (HEPES)
Summary of the method: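 Solubility class (high >250 μM, moderate 31.3–250 μM, low <31.3 μM) comes from the concentration where absorbance reaches a 0.01 threshold, averaged across 490/535/650 nm. Samples were compound dilutions from DMSO stock, 1 μL into 99 μL buffer at pH 1.5, 4.5, 6.8 or 7.4.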

[9] = molecular target: CYP2C9 (Homo sapiens (Human), UniProt P11712); assay: CYP enzyme inhibition, fluorescent substrate (MFC)
Summary of the method: as §3

[10] = molecular target: CYP3A4(BFC) (Homo sapiens (Human), UniProt P08684); assay: CYP enzyme inhibition, fluorescent substrate BFC
Summary of the method: as §3

[11] = molecular target: CYP3A4(BQ) (Homo sapiens (Human), UniProt P08684); assay: CYP enzyme inhibition, fluorescent substrate BQ; conditions: read-out: Cyp IC50 3A4(BQ); CYP3A4, substrate BQ
Description: CYP (Cytochrome P450) enzymes are the major drug metabolizing enzymes present in the liver. The inhibition of CYP enzyme activity (IC50) for each of CYP1A2, CYP2C19, CYP2C9, CYP2D6, CYP3A4(BFC) and CYP3A4(BQ) is determined for compounds, where inhibition of metabolism of a known substrate leads to a decrease in the fluorescence of the metabolized product. The fluorescence of the product is monitored as a function of compound concentration.
Compounds are dissolved in dimethyl sulfoxide to a concentration of 100 mM. These are diluted 1 μL into 82 μL of acetonitrile. […] These are then serially diluted 1:1 (160 μL to 160 μL co-factor mix) for a total of 10 points. A 10 μL aliquot of this final mixture is dispensed into 384 well assay plates and incubated for 10 minutes at 37° C. […] Assay plates are incubated at 37° C. […] The signal versus compound concentration is used to determine the IC50. The enzymes and substrates for this assay are obtained from BD Biosciences.

[12] = read-out: Cyp IC50 2C9, CYP2C9, substrate MFC
[13] = read-out: Cyp IC50 3A4(BFC), CYP3A4, substrate BFC

Sequence of B-Raf V600E (P15056 whole entry V600E): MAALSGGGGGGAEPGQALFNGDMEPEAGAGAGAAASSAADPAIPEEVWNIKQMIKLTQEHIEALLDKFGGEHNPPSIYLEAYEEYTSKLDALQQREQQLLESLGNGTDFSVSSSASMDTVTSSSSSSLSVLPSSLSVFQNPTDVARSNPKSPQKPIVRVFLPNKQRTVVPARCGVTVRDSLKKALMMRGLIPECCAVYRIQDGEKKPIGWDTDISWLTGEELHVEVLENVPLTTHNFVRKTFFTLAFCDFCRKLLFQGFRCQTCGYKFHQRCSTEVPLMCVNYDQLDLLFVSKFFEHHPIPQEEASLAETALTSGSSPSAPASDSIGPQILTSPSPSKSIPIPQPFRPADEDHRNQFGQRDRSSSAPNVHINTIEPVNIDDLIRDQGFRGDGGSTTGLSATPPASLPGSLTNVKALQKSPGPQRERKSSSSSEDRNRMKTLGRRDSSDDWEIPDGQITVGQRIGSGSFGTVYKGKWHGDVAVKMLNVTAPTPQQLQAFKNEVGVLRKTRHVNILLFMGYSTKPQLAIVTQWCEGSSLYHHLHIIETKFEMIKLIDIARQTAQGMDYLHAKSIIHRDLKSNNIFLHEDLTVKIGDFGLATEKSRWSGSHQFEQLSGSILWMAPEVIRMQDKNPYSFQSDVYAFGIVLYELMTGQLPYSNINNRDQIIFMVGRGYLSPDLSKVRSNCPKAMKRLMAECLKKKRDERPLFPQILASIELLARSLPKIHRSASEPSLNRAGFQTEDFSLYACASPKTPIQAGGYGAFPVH
Sequence of CYP1A2 (P05177 whole entry): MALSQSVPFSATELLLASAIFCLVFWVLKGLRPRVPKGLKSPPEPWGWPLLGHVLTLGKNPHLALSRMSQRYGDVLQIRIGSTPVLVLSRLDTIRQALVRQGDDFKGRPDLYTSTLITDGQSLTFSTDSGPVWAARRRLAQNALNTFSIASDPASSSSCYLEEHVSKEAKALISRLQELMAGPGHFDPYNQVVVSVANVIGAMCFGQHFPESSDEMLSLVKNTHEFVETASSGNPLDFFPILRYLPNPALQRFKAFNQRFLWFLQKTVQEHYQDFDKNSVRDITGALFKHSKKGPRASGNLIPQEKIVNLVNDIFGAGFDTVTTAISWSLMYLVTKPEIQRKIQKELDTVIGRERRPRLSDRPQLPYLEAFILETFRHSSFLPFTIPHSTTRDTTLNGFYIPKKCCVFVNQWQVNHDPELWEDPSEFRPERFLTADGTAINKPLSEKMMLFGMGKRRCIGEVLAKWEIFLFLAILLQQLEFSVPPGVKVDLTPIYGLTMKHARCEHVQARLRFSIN
Sequence of CYP2C19 (P33261 whole entry): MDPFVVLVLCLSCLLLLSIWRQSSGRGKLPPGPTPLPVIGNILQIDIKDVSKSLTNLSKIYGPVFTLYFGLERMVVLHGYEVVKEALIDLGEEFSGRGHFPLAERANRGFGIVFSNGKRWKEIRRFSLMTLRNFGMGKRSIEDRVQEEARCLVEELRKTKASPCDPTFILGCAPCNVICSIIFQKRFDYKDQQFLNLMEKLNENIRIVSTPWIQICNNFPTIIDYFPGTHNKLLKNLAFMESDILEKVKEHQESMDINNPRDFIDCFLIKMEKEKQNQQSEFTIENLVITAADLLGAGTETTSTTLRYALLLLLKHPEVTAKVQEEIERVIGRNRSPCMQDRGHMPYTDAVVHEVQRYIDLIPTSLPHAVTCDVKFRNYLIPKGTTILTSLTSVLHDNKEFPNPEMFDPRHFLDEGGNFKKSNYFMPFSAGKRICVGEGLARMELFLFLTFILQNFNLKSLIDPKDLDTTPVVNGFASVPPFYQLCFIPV
Sequence of CYP2C9 (P11712 whole entry): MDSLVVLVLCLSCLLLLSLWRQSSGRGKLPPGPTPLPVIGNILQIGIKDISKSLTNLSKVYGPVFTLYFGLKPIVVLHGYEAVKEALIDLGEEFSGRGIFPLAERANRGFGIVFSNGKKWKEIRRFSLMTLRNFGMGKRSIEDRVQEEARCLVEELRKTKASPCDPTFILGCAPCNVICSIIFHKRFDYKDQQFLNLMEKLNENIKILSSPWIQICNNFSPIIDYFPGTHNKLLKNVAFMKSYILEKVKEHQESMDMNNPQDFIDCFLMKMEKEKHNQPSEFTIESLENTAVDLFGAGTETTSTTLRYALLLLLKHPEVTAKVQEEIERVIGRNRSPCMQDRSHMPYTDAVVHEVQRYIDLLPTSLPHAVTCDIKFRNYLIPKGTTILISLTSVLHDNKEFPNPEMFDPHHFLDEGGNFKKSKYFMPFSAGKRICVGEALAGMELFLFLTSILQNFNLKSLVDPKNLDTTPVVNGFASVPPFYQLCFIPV
Sequence of CYP2D6 (P10635 whole entry): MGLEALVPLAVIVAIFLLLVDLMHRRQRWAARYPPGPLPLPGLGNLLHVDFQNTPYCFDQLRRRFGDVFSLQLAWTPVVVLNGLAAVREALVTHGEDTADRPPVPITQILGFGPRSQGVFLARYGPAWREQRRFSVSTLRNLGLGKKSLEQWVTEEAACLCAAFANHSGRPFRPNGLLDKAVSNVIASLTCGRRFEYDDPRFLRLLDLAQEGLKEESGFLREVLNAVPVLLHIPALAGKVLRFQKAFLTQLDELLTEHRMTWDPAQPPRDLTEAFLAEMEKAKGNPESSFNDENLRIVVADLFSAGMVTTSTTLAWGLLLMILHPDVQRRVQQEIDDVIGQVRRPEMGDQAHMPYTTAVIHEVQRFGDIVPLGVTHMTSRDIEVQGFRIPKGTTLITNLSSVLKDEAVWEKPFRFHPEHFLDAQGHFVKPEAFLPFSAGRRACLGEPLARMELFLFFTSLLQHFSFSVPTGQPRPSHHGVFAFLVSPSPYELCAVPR
Sequence of CYP3A4(BFC) (P08684 whole entry): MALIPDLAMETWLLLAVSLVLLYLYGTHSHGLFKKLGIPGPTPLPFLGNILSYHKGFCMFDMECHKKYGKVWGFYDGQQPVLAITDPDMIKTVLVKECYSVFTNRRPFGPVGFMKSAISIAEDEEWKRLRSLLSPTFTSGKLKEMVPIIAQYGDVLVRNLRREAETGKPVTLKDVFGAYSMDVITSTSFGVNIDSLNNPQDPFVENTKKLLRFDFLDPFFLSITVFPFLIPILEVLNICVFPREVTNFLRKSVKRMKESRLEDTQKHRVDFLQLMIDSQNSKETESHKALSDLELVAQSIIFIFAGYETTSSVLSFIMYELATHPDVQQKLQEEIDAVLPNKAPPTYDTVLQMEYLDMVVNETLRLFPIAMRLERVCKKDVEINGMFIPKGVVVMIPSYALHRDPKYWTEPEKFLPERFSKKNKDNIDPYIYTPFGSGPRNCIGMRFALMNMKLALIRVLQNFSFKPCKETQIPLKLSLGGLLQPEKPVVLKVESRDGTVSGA
Sequence of CYP3A4(BQ) (P08684 whole entry): as above
Sequence of B-Raf (Homo sapiens (Human), UniProt P15056) (P15056 whole entry): as the sequence (P15056 whole entry V600E) above, with E600V counted along it
Sequence of c-Raf-1 (P04049 whole entry, looked up): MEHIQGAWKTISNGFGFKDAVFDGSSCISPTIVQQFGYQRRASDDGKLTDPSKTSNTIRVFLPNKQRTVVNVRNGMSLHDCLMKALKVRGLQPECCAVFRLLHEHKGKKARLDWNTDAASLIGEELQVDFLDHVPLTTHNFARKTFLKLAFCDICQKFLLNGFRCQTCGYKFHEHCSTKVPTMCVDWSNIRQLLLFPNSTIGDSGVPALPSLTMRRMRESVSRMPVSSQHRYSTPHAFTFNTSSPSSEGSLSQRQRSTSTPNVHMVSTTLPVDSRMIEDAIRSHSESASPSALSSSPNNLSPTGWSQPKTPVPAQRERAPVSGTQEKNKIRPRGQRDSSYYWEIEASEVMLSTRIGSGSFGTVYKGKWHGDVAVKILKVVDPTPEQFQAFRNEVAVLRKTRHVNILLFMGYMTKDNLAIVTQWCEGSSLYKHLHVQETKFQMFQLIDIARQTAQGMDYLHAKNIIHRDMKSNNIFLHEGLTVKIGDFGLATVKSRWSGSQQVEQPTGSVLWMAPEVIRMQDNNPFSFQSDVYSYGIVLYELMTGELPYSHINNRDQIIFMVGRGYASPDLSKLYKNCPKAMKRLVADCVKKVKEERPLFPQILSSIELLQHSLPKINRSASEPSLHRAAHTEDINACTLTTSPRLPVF

IC50 ([1]; human, 15 min): > 10 µM
IC50 [4]: > 10 µM
IC50 [11]: > 10 µM
IC50 [7]: > 10 µM
IC50 [9, 12]: > 10 µM
IC50 [10, 13]: > 10 µM
SMILES: O=C(c1c(F)ccc(NS(=O)(=O)c2cc(F)ccc2F)c1F)c1c[nH]c2ncnc(NCC3CC3)c12 [P-1137, N-{3-[4-(Cyclopropylmethyl-amino)-7H-pyrrolo[2,3-d]pyrimidine-5-carbonyl]-2,4-difluoro-phenyl}-2,5-difluoro-benzenesulfonamide]

IC50 ([1]; human, 15 min): > 10 µM
IC50 [4]: > 10 µM
IC50 [11]: > 10 µM
IC50 [7]: > 10 µM
IC50 [9, 12]: > 10 µM
IC50 [10, 13]: > 10 µM
SMILES: COc1cccc(Nc2ncnc3[nH]cc(C(=O)c4c(F)ccc(NS(=O)(=O)c5cc(F)ccc5F)c4F)c23)c1 [P-1139, N-{2,4-Difluoro-3-[4-(3-methoxy-phenylamino)-7H-pyrrolo[2,3-d]pyrimidine-5-carbonyl]-phenyl}-2,5-difluoro-benzenesulfonamide]

IC50 ([1]; human, 15 min): > 10 µM
IC50 [4]: > 10 µM
IC50 [11]: > 10 µM
IC50 [7]: > 10 µM
IC50 [9, 12]: > 10 µM
IC50 [10, 13]: > 10 µM
SMILES: CCn1cc(Nc2ncnc3[nH]cc(C(=O)c4c(F)ccc(NS(=O)(=O)c5cc(F)ccc5F)c4F)c23)cn1 [P-1142, N-{3-[4-(1-Ethyl-1H-pyrazol-4-ylamino)-7H-pyrrolo[2,3-d]pyrimidine-5-carbonyl]-2,4-difluoro-phenyl}-2,5-difluoro-benzenesulfonamide]

IC50 ([1]; human, 15 min): > 10 µM
IC50 [4]: > 10 µM
IC50 [11]: > 10 µM
IC50 [7]: > 10 µM
IC50 [9, 12]: > 10 µM
IC50 [10, 13]: > 10 µM
SMILES: COc1cccc(Nc2ncnc3[nH]cc(C(=O)c4c(F)ccc(NS(=O)(=O)c5ccccc5F)c4F)c23)c1 [P-1149, N-{2,4-Difluoro-3-[4-(3-methoxy-phenylamino)-7H-pyrrolo[2,3-d]pyrimidine-5-carbonyl]-phenyl}-2-fluoro-benzenesulfonamide]

IC50 ([1]; human, 15 min): > 10 µM
IC50 [4]: > 10 µM
IC50 [11]: > 10 µM
IC50 [7]: > 10 µM
IC50 [9, 12]: > 10 µM
IC50 [10, 13]: > 10 µM
SMILES: COCCNc1ncnc2[nH]cc(C(=O)c3c(F)ccc(NS(=O)(=O)c4ccccc4F)c3F)c12 [P-1150, N-{2,4-Difluoro-3-[4-(2-methoxy-ethylamino)-7H-pyrrolo[2,3-d]pyrimidine-5-carbonyl]-phenyl}-2-fluoro-benzenesulfonamide]

IC50 ([1]; human, 15 min): > 10 µM
IC50 [4]: > 10 µM
IC50 [11]: > 10 µM
IC50 [7]: > 10 µM
IC50 [9, 12]: > 10 µM
IC50 [10, 13]: > 10 µM
SMILES: CCn1cc(Nc2ncnc3[nH]cc(C(=O)c4c(F)ccc(NS(=O)(=O)c5ccccc5F)c4F)c23)cn1 [P-1153, N-{3-[4-(1-Ethyl-1H-pyrazol-4-ylamino)-7H-pyrrolo[2,3-d]pyrimidine-5-carbonyl]-2,4-difluoro-phenyl}-2-fluoro-benzenesulfonamide]

The next lines start with the compound.

SMILES: O=C(c1c(F)ccc(NS(=O)(=O)c2ccc(C(F)(F)F)cc2)c1F)c1c[nH]c2ncnc(Nc3ccccc3)c12 [P-1037, N-[2,4-Difluoro-3-(4-phenylamino-7H-pyrrolo[2,3-d]pyrimidine-5-carbonyl)-phenyl]-4-trifluoromethyl-benzenesulfonamide]
IC50 ([1]; human, 15 min): > 10 µM
Biochemical activity ratio B/V600E [2]: 0.1-10
Biochemical activity ratio B/C [2]: >10
IC50 [3]: < 0.1 µM
IC50 [4]: > 10 µM
IC50 [5]: < 0.1 µM
IC50 [6]: > 0.1 µM
Biochemical activity ratio V600E/C [6]: >10
IC50 [7]: < 5 µM
turbidity threshold (L, M, H) 1.4 [8]: L (low solubility if the threshold concentration is <31.3 μM)
turbidity threshold (L, M, H) 4.5 [8]: L (low solubility if the threshold concentration is <31.3 μM)
turbidity threshold (L, M, H) 6.8 [8]: L (low solubility if the threshold concentration is <31.3 μM)
turbidity threshold (L, M, H) 7.4 [8]: L (low solubility if the threshold concentration is <31.3 μM)
IC50 [9, 12]: > 10 µM
IC50 [10, 13]: > 10 µM

SMILES: CC(C)Nc1ncnc2[nH]cc(C(=O)c3c(F)ccc(NS(=O)(=O)c4ccc(C(F)(F)F)cc4)c3F)c12 [P-1039, N-[2,4-Difluoro-3-(4-isopropylamino-7H-pyrrolo[2,3-d]pyrimidine-5-carbonyl)-phenyl]-4-trifluoromethyl-benzenesulfonamide]
IC50 ([1]; human, 15 min): > 10 µM
Biochemical activity ratio B/V600E [2]: 0.1-10
Biochemical activity ratio B/C [2]: >10
IC50 [3]: < 0.1 µM
IC50 [4]: > 10 µM
IC50 [5]: < 0.1 µM
IC50 [6]: < 0.1 µM
Biochemical activity ratio V600E/C [6]: >10
IC50 [7]: > 10 µM
turbidity threshold (L, M, H) 1.4 [8]: M (moderate solubility if the threshold concentration is 31.3 μM to 250 μM)
turbidity threshold (L, M, H) 4.5 [8]: M (moderate solubility if the threshold concentration is 31.3 μM to 250 μM)
turbidity threshold (L, M, H) 6.8 [8]: M (moderate solubility if the threshold concentration is 31.3 μM to 250 μM)
turbidity threshold (L, M, H) 7.4 [8]: M (moderate solubility if the threshold concentration is 31.3 μM to 250 μM)
IC50 [9, 12]: > 10 µM
IC50 [10]: 5 to 10 µM

SMILES: CC(C)Nc1ncnc2[nH]cc(C(=O)c3c(F)ccc(NS(=O)(=O)c4ccccc4F)c3F)c12 [P-1073, N-[2,4-Difluoro-3-(4-isopropylamino-7H-pyrrolo[2,3-d]pyrimidine-5-carbonyl)-phenyl]-2-fluoro-benzenesulfonamide]
IC50 ([1]; read-out: Cyp IC50 1A2, CYP1A2, substrate CEC): > 10 µM
IC50 [4]: > 10 µM
IC50 [11]: > 10 µM
IC50 [7]: > 10 µM
turbidity threshold (L, M, H) 1.4 [8]: M (moderate solubility if the threshold concentration is 31.3 μM to 250 μM)
turbidity threshold (L, M, H) 4.5 [8]: L (low solubility if the threshold concentration is <31.3 μM)
turbidity threshold (L, M, H) 6.8 [8]: L (low solubility if the threshold concentration is <31.3 μM)
turbidity threshold (L, M, H) 7.4 [8]: L (low solubility if the threshold concentration is <31.3 μM)
IC50 [9, 12]: > 10 µM
IC50 [10, 13]: > 10 µM

SMILES: CCCS(=O)(=O)Nc1ccc(F)c(C(=O)c2c[nH]c3ncnc(NCc4ccccc4)c23)c1F [P-1074, Propane-1-sulfonic acid [3-(4-benzylamino-7H-pyrrolo[2,3-d]pyrimidine-5-carbonyl)-2,4-difluoro-phenyl]-amide]
IC50 ([1]; human, 15 min): > 10 µM
IC50 [4]: > 10 µM
IC50 [11]: > 10 µM
IC50 [7]: > 10 µM
IC50 [9, 12]: > 10 µM
IC50 [10, 13]: > 10 µM

SMILES: CCCS(=O)(=O)Nc1ccc(F)c(C(=O)c2c[nH]c3ncnc(Nc4ccc(OC)nc4)c23)c1F [P-1090, Propane-1-sulfonic acid {2,4-difluoro-3-[4-(6-methoxy-pyridin-3-ylamino)-7H-pyrrolo[2,3-d]pyrimidine-5-carbonyl]-phenyl}-amide]
IC50 ([1]; human, 15 min): > 10 µM
IC50 [4]: > 10 µM
IC50 [11]: > 10 µM
IC50 [7]: > 10 µM
IC50 [9, 12]: > 10 µM
IC50 [10, 13]: > 10 µM

SMILES: CC(C)Nc1ncnc2[nH]cc(C(=O)c3c(F)ccc(NS(=O)(=O)c4cc(F)ccc4F)c3F)c12 [P-1111, N-[2,4-Difluoro-3-(4-isopropylamino-7H-pyrrolo[2,3-d]pyrimidine-5-carbonyl)-phenyl]-2,5-difluoro-benzenesulfonamide]
IC50 ([1]; human, 15 min): > 10 µM
IC50 [4]: > 10 µM
IC50 [11]: > 10 µM
IC50 [7]: > 10 µM
IC50 [9]: 5 to 10 µM
IC50 [10, 13]: > 10 µM
